Measured values as given in ChEMBL document CHEMBL3864155, “Dihydrostilbenes and diarylpropanes: Synthesis and in vitro pharmacological evaluation as potent nitric oxide production inhibition agents” (Bioorg Med Chem Lett, 2016).

Columns and labels:
[1] = Cytotoxicity against mouse RAW264.7 cells assessed as cell proliferation rate at 100 uM after 24 hrs by MTS assay relative to control; assay type: toxicity; details: read-out: Activity
[2] = Cytotoxicity against mouse RAW264.7 cells assessed as cell proliferation rate at 10 uM after 24 hrs by MTS assay relative to control; assay type: toxicity; details: read-out: Activity
[3] = Cytotoxicity against mouse RAW264.7 cells assessed as cell proliferation rate at 50 uM after 24 hrs by MTS assay relative to control; assay type: toxicity; details: read-out: Activity
[4] = Antiinflammatory activity in mouse RAW264.7 cells assessed as inhibition of LPS-induced nitric oxide production at 10 uM after 18 hrs by Griess assay relative to control; assay type: functional; details: RAW264.7, 18 h
[5] = Antiinflammatory activity in mouse RAW264.7 cells assessed as inhibition of LPS-induced nitric oxide production at 50 to 100 uM after 18 hrs by Griess assay relative to control; assay type: functional
[6] = Antiinflammatory activity in mouse RAW264.7 cells assessed as inhibition of LPS-induced nitric oxide production at 1 uM after 18 hrs by Griess assay relative to control; assay type: functional; details: RAW264.7, 18 h
[7] = tested on: RAW264.7; test: Effect on LPS-induced iNOS expression in mouse RAW264.7 cells at 10 uM after 18 hrs by Western blot method relative to LPS; assay type: functional
[8] = Cytotoxicity against mouse RAW264.7 cells assessed as cell proliferation rate at 1 uM after 24 hrs by MTS assay relative to control; assay type: toxicity; details: read-out: Activity
[9] = Cytotoxicity against mouse RAW264.7 cells assessed as decrease in cell proliferation rate after 24 hrs by MTS assay; assay type: toxicity
[10] = tested on: RAW264.7; test: Antiinflammatory activity in mouse RAW264.7 cells assessed as inhibition of LPS-induced nitric oxide production at 1 to 10 uM after 18 hrs by Griess assay; assay type: functional, cell-based

Row | SMILES | viability at 24 h, 100 µM [1] [%] | viability at 24 h, 10 µM [2] [%] | viability at 24 h, 50 µM [3] [%] | inhibition at 10 µM [4] [%] | inhibition (INH) [5] [%] | inhibition at 1 µM [6] [%] | fold change (FC) [7] | viability at 24 h, 1 µM [8] [%] | IC50 at 24 h [9] [µM] | inhibition [10]
1 | COc1ccc(CCCc2ccc(O)c(O)c2O)cc1OC | 73.2 | 130 | 86.4 | 28.6 | >80 | 29.6 | 0.71 | 110 | 10.7 | 
2 | COc1cc(CCCc2cc(OC)c(O)c(OC)c2)ccc1O | 82 | 98.7 | 88.7 | 21.8 | >80 | 27.2 | 0.81 | 98.4 | 16.4 | 
3 | COc1cc(CCc2cc(OC)c(OC)cc2O)ccc1O | 133 | 124 | 128 | 29.5 | >80 | 35.2 | 1.12 | 120 | 13.8 | 
4 | COc1ccc(CCc2ccc(O)c(O)c2O)cc1OC | 133 | 114 | 128 | 47 | >80 | 42.7 | 0.92 | 114 | 6.02 | Dose-dependent effect
5 | COc1cc(CCCc2cc(OC)c(OC)cc2O)ccc1O | 80.9 | 113 | 88.4 | 56.5 | >80 | 38.2 | 0.73 | 135 | 4.46 | Dose-dependent effect
6 | COc1ccc(CCc2ccc(O)c(O)c2OC)cc1OC | 81.9 | 99.9 | 94.8 | 75.5 | >80 | 24.3 | 0.65 | 106 | 2.98 | Dose-dependent effect
7 | Oc1cc(O)cc(CCc2ccc3c(c2)OCO3)c1 | 78.9 | 90.8 | 82.7 | 28.3 | >80 | 17 | 0.93 | 96.8 | 14.5 | Dose-dependent effect
8 | COc1ccc(CCCc2ccc(O)c(O)c2OC)cc1OC | 61.9 | 103 | 86.3 | 100 | >80 | 36.9 | 0.39 | 118 | 1.84 | Dose-dependent effect
9 | CNC(=N)NCCC[C@H](N)C(=O)O [TILARGININE] | 97.2 | 100 | 113 | 90.1 |  | 15 | 0.92 - 1.02 | 100 | 2.73 | 
10 | Oc1cc(O)cc(CCCc2ccc3c(c2)OCO3)c1 | 70.4 | 102 | 86.7 | 53.6 | >80 | 40.8 | 0.74 | 116 | 1.3 | Dose-dependent effect
11 | COc1cc(CCc2cc(OC)c(O)c(OC)c2)ccc1O [MOSCATILIN] | 59.6 | 52.9 | 47 | 78.4 | >80 | 7.4 | 0.93 | 143 | 4.4 | Dose-dependent effect
